In patent publication US11253532B2, “Composition for promoting increase in androgen” (Kobayashi Pharmaceutical Co., Ltd., priority 2016, dated 2022):

System: cells of testes collected from mice (primary culture)
Assay: Test Example 1: testosterone secretion from primary culture of mouse testes cells, measured by EIA
Type: cell-based, mice (ddY strain)
Conditions: 2-hour culture
Procedure: 2 mL of 50% ethanol was added to 4 mg/vial of compound K (trade name: Ginsenoside CK, 0150S, Extrasynthese S.A.) to dissolve compound K, and the obtained solution was suitably diluted with a DME/F-12 medium (Nacalai Tesque) containing 0.1% bovine serum albumin (BSA) (“0.1% BSA-DME/F-12”) to prepare a sample.
Testes were collected from mice (ddY strain, male, 7 to 8 weeks old), and subjected to primary culture. Specifically, testes were subjected to collagenase treatment (Worthington, Type 2, 0.05%, 37° C., 15 minutes) to disperse cells, and adjusted to 3×10^5 cells/0.5 mL in a DME/F-12 medium containing 10% fetal bovine serum (FBS). The cells were then seeded into a 24-well plate, and cultured overnight. After culture, the cells were washed with PBS(−) (Dulbecco's PBS (0.2 g/L of potassium chloride, 0.2 g/L of monopotassium phosphate, 8 g/L of sodium chloride, 1.15 g/L of anhydrous disodium phosphate, pH of 7.4, an isotonic solution, ion content: (mEq)Na^+ 148, K^+ 4, Cl^− 139)). The prepared sample was then added to the cells to give a volume of 1/10, together with a 0.1% BSA-DME/F-12 medium, and the concentration of compound K in the wells was adjusted to 1 μg/mL, 10 μg/mL, and 100 μg/mL.
A mixture solution of 50% ethanol and 0.1% BSA-DME/F-12 was prepared in place of the sample in the same manner as above, except that compound K was not added; this mixture was added to the cells to give a volume of 1/10 as above, thereby preparing a control (the concentration of compound K: 0 μg/mL).
After 2-hour culture, the medium was collected, and the testosterone levels in the mediums were measured by enzyme immunoassay (EIA).
Specifically, a goat anti-rabbit IgG antibody (2 μg/well) was added to a 96-well microplate (Nunc, Denmark), and the plate was coated at room temperature for 1 hour. After washing, a blocking agent (0.14M NaCl, 0.02% thimerosal, 1% BSA, 0.01M phosphate buffer, pH of 7.4) was added thereto to perform blocking at room temperature for 15 minutes. […] The absorbance at 490 nm was measured with a microplate reader to determine the testosterone secretion level.

## CC(C)=CCC[C@](C)(O[C@@H]1O[C@H](CO)[C@@H](O)[C@H](O)[C@H]1O)[C@H]1CC[C@]2(C)[C@@H]1[C@H](O)C[C@@H]1[C@@]3(C)CC[C@H](O)C(C)(C)[C@@H]3CC[C@]12C [compound K, 20(S)-protopanaxadiol 20-O-β-d-glucopyranoside (M1)]
Compound K 1 μg/mL, not shown in FIG. 1
  testosterone level in a medium: increased testosterone level
Compound K 10 μg/mL, versus medium free from compound K (0 μg/mL), FIG. 1
  testosterone level in a medium: higher
Compound K 100 μg/mL, versus medium free from compound K (0 μg/mL), FIG. 1
  testosterone level in a medium: higher
